Source: PMC5507595 (Free radical biology & medicine, 2017)

Target: protein disulfide isomerase (PDI) (Homo sapiens, UniProt P07237)
Test: absorbance titration of MNS with reduced PDI
Type: binding

protein disulfide isomerase (PDI), sequence (P07237 18-508): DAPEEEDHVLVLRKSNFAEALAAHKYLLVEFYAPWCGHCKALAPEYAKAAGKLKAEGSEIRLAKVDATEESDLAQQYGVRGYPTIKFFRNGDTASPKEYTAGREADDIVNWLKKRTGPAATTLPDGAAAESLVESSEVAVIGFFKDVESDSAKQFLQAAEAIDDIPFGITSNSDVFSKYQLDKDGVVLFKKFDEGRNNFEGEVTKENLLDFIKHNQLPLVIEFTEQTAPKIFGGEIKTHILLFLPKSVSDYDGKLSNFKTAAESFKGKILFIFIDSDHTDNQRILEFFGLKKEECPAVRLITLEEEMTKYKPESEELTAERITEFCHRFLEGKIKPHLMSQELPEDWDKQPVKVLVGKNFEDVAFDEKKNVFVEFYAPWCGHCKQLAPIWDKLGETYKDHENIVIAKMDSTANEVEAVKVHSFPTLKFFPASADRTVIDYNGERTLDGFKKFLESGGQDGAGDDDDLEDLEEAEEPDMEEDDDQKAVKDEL

With `O=[N+]([O-])C=Cc1ccc2c(c1)OCO2` [3,4-methylenedioxy-β-nitrostyrene] the Kd was “low micromolar”.
